Assays:
[1] = system: amyotrophic lateral sclerosis; conditions: human; cited from earlier work
acute traumatic SCI = assay: ASIA motor recovery after acute traumatic SCI (randomized placebo-controlled trial); assay type: in vivo, human
Description: The research protocol disclosed herein was approved by the University of Calgary Conjoint Health Research Ethics Board. Between June 2004 and August 2008, all subjects presenting with motor deficit secondary to acute traumatic SCI to the Spine Service at the Foothills Medical Centre in Calgary, Calgary, Alberta, Canada, were immediately identified to the principal investigators and were assessed and screened for this trial (Clinical Trials Gov. Identifier No. NCT00559494). Those within 12 h of injury who met other inclusion criteria (Table 1) were offered enrolment. […] For this purpose, sets of 10 random numbers balanced for odd and even integers were computer generated. Sequentially numbered and sealed packaged kits containing minocycline or placebo were constructed from the randomization codes for each stratified group by an independent individual not otherwise involved in the trial. Patients were administered the next available treatment kit for their appropriate treatment group. With the exception of the bedside nurse responsible for study drug administration, all subjects and research personnel were blinded to treatment until the end of the study (FIG. 1). […] Clin. Exp. Pharmacol. Physiol. 1:299-308). […] Neurological function was assessed at intervals using the American Spinal Cord Injury Association (ASIA) standardized neurological examination and included the motor composites and sensory composites. These examinations were performed by a physical medicine and rehabilitation specialist at Day 1 (time of enrolment), Day 4, Day 5, Day 7, Week 3, Week 6, Week 12, Month 6, and Month 12 (Table 3). Day 1 scores were subtracted from each subsequent score to calculate improvement from baseline for graphing purposes. […] ASIA sensory scores were similarly evaluated. […] Functional recovery data were compared over all data points. […] All statistical tests were two-tailed (a=0.05).

contusive SCI = conditions: rats; 90 mg/kg i.p. or via jugular cannula, then two 45 mg/kg i.p. at 12-h intervals; cited from earlier work

In the case of CN(C)c1ccc(O)c2c1C[C@H]1C[C@H]3[C@H](N(C)C)C(O)=C(C(N)=O)C(=O)[C@@]3(O)C(O)=C1C2=O [minocycline, (2E,4S,4aR,5aS,12aR)-2-(amino-hydroxy-methylidene)-4,7-bis(dimethylamino)-10,11,12a-trihydroxy-4-a,5,5a,6-tetrahydro-4H-tetracene-1,3,12-trione], the “clinical outcome in amyotrophic lateral sclerosis” value [1] is listed as “clinical deterioration”, the “ASIA motor recovery greater than placebo” value (acute traumatic SCI; all subjects with data beyond 3 months (44), 3-12 month plateau, P=0.20) is listed as 6 motor points and the “distribution of motor recovery difference vs placebo: lower extremity and new segment scores” value (acute traumatic SCI; cervical SCI) is listed as “majority of the difference”. The “distribution of motor recovery difference vs placebo: upper extremities, zone of partial preservation” value (acute traumatic SCI; cervical SCI) was “Little difference”, the “difference in ASIA motor score over placebo” value (“difference in ASIA motor score” below) (acute traumatic SCI; cervical SCI (n=25), 95% CI 0-28, P=0.05) was 14 point and the “motor recovery, low-dose vs high-dose groups” value (acute traumatic SCI; cervical SCI subgroups (FIG. 5)) was “greater difference with higher doses”. The “difference in ASIA motor score” value (acute traumatic SCI; cervical motor-complete (n=16), P=0.29) was 10 points, the “difference in ASIA motor score” value (acute traumatic SCI; cervical motor-incomplete (n=9), P=0.12) was 22 points and the “difference in ASIA motor score” value (acute traumatic SCI; cervical motor-incomplete, excluding one placebo subject with poor recovery (n=8), P=0.135) was 13 points. The “ASIA motor recovery benefit vs placebo” value (acute traumatic SCI; thoracic SCI (n=17)) was “did not show any benefit” and the “behavioural or histological improvements or recovery from SCI” value (contusive SCI) was “neither route for minocycline administration resulted in any behavioural or histological improvements”.

— patent publication US20140274969A1 (priority 2013, published 2014)
